Patent US11447511B2, “Dioxolane analogues of uridine for the treatment of cancer” (MEDIVIR AB, priority 2014, dated 2022)

Experiments:
[1] = Cell cytotoxicity assay, HUH7; format: cell-based; details: human; Huh7 cells, 5 days at 37° C., XTT dye
Experimental: (§1) Cells were seeded 24 hours prior to compound addition. Each test compound (serially diluted from 100 μM) was added to Huh7 (1.5×10^4 cells/well) or HepG2 (1.5×10^4 cells/well), and allowed to incubate for 5 days at 37° C. A medium only control was used to determine the minimum absorbance value and an untreated cell value. At the end of the growth period, XTT dye from Polysciences Europe GmbH was added to each well. The absorbance at 450 nm with a reference wavelength of 600 nm was read with a Sunrise (Tecan) using the medium only control wells as blanks. The 50% inhibition value (CC50) was determined by comparing the degree of inhibition (compared to cell control) plotted against compound concentration. Results from the dilution series were fitted to a sigmoidal dose-response curve.
(§2) Compounds of the invention were evaluated in these assays to assess the stability in human intestinal S9 fraction (HIS9) and human liver S9 fraction (HLS9), and for Cell Cytotoxicity in HUH7, HEP3B and HEPG2 cells.

[2] = Stability in human intestinal S9 fraction (HIS9); format: in vitro ADME; details: human intestinal S9 0.4 mg protein/mL, 5 μM test compound, 37° C.
Experimental: (§3) Stability in Human Intestinal S9 Fraction (HIS9) and in Human Liver S9 Fraction (HLS9),
(§4) Stock solutions of each test compound (10 mM) were prepared in DMSO and stored at −20° C. Prior to the start of the experiment, the test compounds were diluted to 500 μM in 50% acetonitrile in water. The reaction mixture was prepared in a total volume of 250 μL containing 5 mM MgC2, 1 mM NADPH and 5 μM test compound in 50 mM potassium phosphate buffer (pH 7.4). The reaction was initiated by addition of human liver or intestinal S9 fraction with a final concentration of 0.4 mg protein/mL (Xeno Tech). The reaction mixture was incubated on an orbital shaker at 37° C. At the desired time points (0, 10, 30 and 60 minutes) aliquots of 50 μL were taken and the reaction was stopped by mixing with 150 μL acetonitrile containing internal standard. Standard solutions of each test compound were prepared from the 500 μM solution by diluting the solution to a final concentration of 5 μM in boiled human S9 (0.4 mg protein/mL), 5 mM MgCl2 and 50 mM potassium phosphate buffer (pH 7.4). The standards and samples were kept on ice for 30 min then centrifuged at 3 000 g for 20 minutes at 10° C., there after 10 μL of supernatant was mixed with 200 μL 50% acetonitrile in water. 0.5 μM of each test compound in 50% acetonitrile in water was injected into the LC/MS-MS to determine the daughter ion, declustring potential (DP), collision energy (CE) and collision cell exit potential (CXP) in order to develop a LC/MS-MS method. The compounds were separated using a C18 column with a QTRAP5500 system. The mobile phase consisted of solvent A (98% water, 2% acetonitrile, 0.1% acetic acid or 10 mM ammonium acetate) and solvent B (80% acetonitrile, 20% water, 0.1% acetic acid or 10 mM ammonium acetate). Elution of the compounds was performed by using a gradient of solvent B from 0% to 100%. 5 μL of standard points and samples were injected for analysis with QTRAP5500.
(§5) The amount of parent compound was determined on the basis of the peak area for each time point compared to standard which was set to 5 μM. Intrinsic clearance (CLint) and half-life (t1/2) were determined from the disappearance curves of the test compound using Excel software.

[3] = Cell cytotoxicity assay, HEPG2; format: cell-based; details: human; HepG2 cells, 5 days at 37° C., XTT dye
Experimental: as §1, §2

[4] = Stability in human liver S9 fraction (HLS9); format: in vitro ADME; details: human liver S9 0.4 mg protein/mL, 5 μM test compound, 37° C.; for microsomal CLint at 5 μM: liver S9 fraction, pH 7.4
Experimental: as §3, §4, §5

HepG2 = test: Cell cytotoxicity assay, HEPG2; format: cell-based; details: HepG2 cells, 5 days at 37° C., XTT dye
Experimental: as §1, §2

HEP3B = test: Cell cytotoxicity assay, HEP3B; format: cell-based; details: HEP3B cells
Experimental: as §1, §2

Huh7 = test: Cell cytotoxicity assay, HUH7; format: cell-based; details: Huh7 cells, 5 days at 37° C., XTT dye
Experimental: as §1, §2

For `CC(C)OC(=O)[C@H](C)NP(=O)(OC[C@H]1OC[C@@H](n2ccc(N)nc2=O)O1)Oc1ccccc1` (single isomer, unassigned) [Example 3], the CC50 at 5 days [1] was 3280 nM, the “CLint Intestinal S9” value [2] was 6 µL/min/mg and the CC50 at 5 days [3] was 371 nM. The microsomal CLint at 5 μM [4] was 8 µL/min/mg.

In the case of `CC[C@@H](C)OC(=O)[C@H](C)NP(=O)(OC[C@H]1OC[C@@H](n2ccc(N)nc2=O)O1)Oc1ccc([Si](C)(C)C)cc1` (single isomer, unassigned; dia-2) [11 dia-2], the “CLint Intestinal S9” value [2] was 28 µL/min/mg, the CC50 (HepG2) was 54 nM and the CC50 (HEP3B) was 31 nM. The “CLint Liver S9” value [4] was 81 µL/min/mg.

With `CCC[C@H](C)OC(=O)[C@H](C)NP(=O)(OC[C@H]1OC[C@@H](n2ccc(N)nc2=O)O1)Oc1ccc(C2CC2)cc1` (single isomer, unassigned; dia-2) [16 dia-2] the CC50 (Huh7) was 152 nM, the “CLint Intestinal S9” value [2] was 8 µL/min/mg and the CC50 (HepG2) was 130 nM. The CC50 (HEP3B) was 53 nM and the “CLint Liver S9” value [4] was 59 µL/min/mg.

In the case of `CC[C@@H](C)OC(=O)[C@H](C)NP(=O)(OC[C@H]1OC[C@@H](n2ccc(N)nc2=O)O1)Oc1ccccc1` (single isomer, unassigned; dia-2) [18 dia-2], the CC50 (Huh7) was 76 nM, the “CLint Intestinal S9” value [2] was 7 µL/min/mg and the CC50 (HepG2) was 65 nM. For the same compound, the CC50 (HEP3B) was 113 nM and the “CLint Liver S9” value [4] was 30 µL/min/mg.

With `CC[C@@H](C)OC(=O)[C@H](C)NP(=O)(OC[C@H]1OC[C@@H](n2ccc(N)nc2=O)O1)Oc1ccc([Si](C)(C)C)cc1` (single isomer, unassigned; dia-1) [11 dia-1] the CC50 (Huh7) was 26 nM, the “CLint Intestinal S9” value [2] was 6 µL/min/mg and the CC50 (HepG2) was 54 nM. The CC50 (HEP3B) was 18 nM and the “CLint Liver S9” value [4] was 51 µL/min/mg.

For `CC(C)OC(=O)[C@H](C)NP(=O)(OC[C@H]1OC[C@@H](n2ccc(N)nc2=O)O1)Oc1ccccc1` (single isomer, unassigned) [Example 2], the CC50 at 5 days [1] was 1750 nM, the “CLint Intestinal S9” value [2] was 6 µL/min/mg and the CC50 at 5 days [3] was 248 nM. The microsomal CLint at 5 μM [4] was 13 µL/min/mg.

In the case of `CCCC(CCC)COC(=O)[C@H](C)NP(=O)(OC[C@H]1OC[C@@H](n2ccc(N)nc2=O)O1)Oc1ccccc1` (single isomer, unassigned; dia-2) [8 dia-2], the CC50 (Huh7) was 74 nM, the CC50 (HepG2) was 17 nM and the CC50 (HEP3B) was 35 nM.

With `CCCC(CCC)COC(=O)[C@H](C)NP(=O)(OC[C@H]1OC[C@@H](n2ccc(N)nc2=O)O1)Oc1ccc(Br)cc1` (single isomer, unassigned; dia-1) [23 dia-1] the “CLint Intestinal S9” value [2] was 32 µL/min/mg, the CC50 (HepG2) was 8.6 nM and the CC50 (HEP3B) was 10 nM. The “CLint Liver S9” value [4] was 186 µL/min/mg.

In the case of `COC(=O)[C@H](C)NP(=O)(OC[C@H]1OC[C@@H](n2ccc(N)nc2=O)O1)Oc1ccccc1` (single isomer, unassigned; dia-2) [26 dia-2], the CC50 (Huh7) was 4730 nM, the “CLint Intestinal S9” value [2] was 6 µL/min/mg and the CC50 (HepG2) was 1060 nM. For the same compound, the CC50 (HEP3B) was 4020 nM and the “CLint Liver S9” value [4] was 10 µL/min/mg.

In the case of `C[C@H](NP(=O)(OC[C@H]1OC[C@@H](n2ccc(N)nc2=O)O1)Oc1cccc2ccccc12)C(=O)OC1CCCC1` (single isomer, unassigned; dia-1) [22 dia-1], the CC50 (Huh7) was 33 nM, the “CLint Intestinal S9” value [2] was 52 µL/min/mg and the CC50 (HepG2) was 12 nM. The “CLint Liver S9” value [4] was 49 µL/min/mg.

For `CCC[C@H](C)OC(=O)[C@H](C)NP(=O)(OC[C@H]1OC[C@@H](n2ccc(N)nc2=O)O1)Oc1ccccc1` (single isomer, unassigned; dia-2) [20 dia-2], the CC50 (Huh7) was 73 nM, the “CLint Intestinal S9” value [2] was 6 µL/min/mg and the CC50 (HepG2) was 60 nM. The CC50 (HEP3B) was 78 nM and the “CLint Liver S9” value [4] was 25 µL/min/mg.

In the case of `COC(=O)[C@H](C)NP(=O)(OC[C@H]1OC[C@@H](n2ccc(N)nc2=O)O1)Oc1ccc(Br)cc1` (single isomer, unassigned; dia-1) [27 dia-1], the CC50 (Huh7) was 1440 nM, the “CLint Intestinal S9” value [2] was 11 µL/min/mg and the CC50 (HepG2) was 151 nM. The “CLint Liver S9” value [4] was 38 µL/min/mg.

In the case of `CC[C@@H](C)OC(=O)[C@H](C)NP(=O)(OC[C@H]1OC[C@@H](n2ccc(N)nc2=O)O1)Oc1ccccc1` (single isomer, unassigned; dia-1) [18 dia-1], the CC50 (Huh7) was 461 nM, the “CLint Intestinal S9” value [2] was 6 µL/min/mg and the CC50 (HepG2) was 248 nM. The CC50 (HEP3B) was 228 nM and the “CLint Liver S9” value [4] was 21 µL/min/mg.

With `C[C@H](NP(=O)(OC[C@H]1OC[C@@H](n2ccc(N)nc2=O)O1)Oc1cccc2ccccc12)C(=O)OCc1ccccc1` (single isomer, unassigned; dia-2) [9 dia-2] the CC50 (Huh7) was 158 nM, the “CLint Intestinal S9” value [2] was 127 µL/min/mg and the CC50 (HepG2) was 16 nM. The “CLint Liver S9” value [4] was 94 µL/min/mg.

For `CC(C)OC(=O)[C@H](C)NP(=O)(OC[C@H]1OC[C@@H](n2ccc(N)nc2=O)O1)Oc1cccc2ccccc12` (single isomer, unassigned; dia-1) [5 dia-1], the CC50 (Huh7) was 465 nM, the “CLint Intestinal S9” value [2] was 21 µL/min/mg and the CC50 (HepG2) was 107 nM. For the same compound, the “CLint Liver S9” value [4] was 32 µL/min/mg.

In the case of `CCC(CC)OC(=O)[C@H](C)NP(=O)(OC[C@H]1OC[C@@H](n2ccc(N)nc2=O)O1)Oc1ccccc1` (single isomer, unassigned; dia-2) [21 dia-2], the CC50 (Huh7) was 70 nM, the “CLint Intestinal S9” value [2] was 10 µL/min/mg and the CC50 (HepG2) was 48 nM. The “CLint Liver S9” value [4] was 22 µL/min/mg.

With `CC(C)OC(=O)[C@H](C)NP(=O)(OC[C@H]1OC[C@@H](n2ccc(=O)[nH]c2=O)O1)Oc1ccccc1` (stereo partly drawn) [Example 1, (2S)-isopropyl 2-(((((2S,4S)-4-(2,4-dioxo-3,4-dihydropyrimidin-1(2H)-yl)-1,3-dioxolan-2-yl)methoxy)(phenoxy)phosphoryl)amino)propanoate] the CC50 at 5 days [1] was over 100000 nM, the “CLint Intestinal S9” value [2] was 6 µL/min/mg and the CC50 at 5 days [3] was over 100000 nM. For the same compound, the microsomal CLint at 5 μM [4] was 12 µL/min/mg.

In the case of `Nc1ccn([C@@H]2CO[C@H](COP(=O)(N[C@@H](Cc3ccccc3)C(=O)OCc3ccccc3)Oc3cccc(C4CC4)c3)O2)c(=O)n1` (single isomer, unassigned; dia-2) [12 dia-2], the CC50 (Huh7) was 5020 nM, the “CLint Intestinal S9” value [2] was 300 µL/min/mg and the CC50 (HepG2) was 1090 nM. For the same compound, the “CLint Liver S9” value [4] was 97 µL/min/mg.

In the case of `C[C@H](NP(=O)(OC[C@H]1OC[C@@H](n2ccc(N)nc2=O)O1)Oc1ccccc1)C(=O)OCc1ccccc1` (single isomer, unassigned; dia-2) [19 dia-2], the CC50 (Huh7) was 71 nM, the “CLint Intestinal S9” value [2] was 17 µL/min/mg and the CC50 (HepG2) was 14 nM. The CC50 (HEP3B) was 58 nM and the “CLint Liver S9” value [4] was 24 µL/min/mg.

In the case of `COC(=O)[C@H](C)NP(=O)(OC[C@H]1OC[C@@H](n2ccc(N)nc2=O)O1)Oc1ccccc1` (single isomer, unassigned; dia-1) [26 dia-1], the “CLint Intestinal S9” value [2] was 6 µL/min/mg, the CC50 (HepG2) was 1210 nM and the CC50 (HEP3B) was 4340 nM. The “CLint Liver S9” value [4] was 7 µL/min/mg.

With `CCC[C@H](C)OC(=O)[C@H](C)NP(=O)(OC[C@H]1OC[C@@H](n2ccc(N)nc2=O)O1)Oc1ccc(C2CC2)cc1` (single isomer, unassigned; dia-1) [16 dia-1] the CC50 (Huh7) was 1200 nM, the “CLint Intestinal S9” value [2] was 8 µL/min/mg and the CC50 (HepG2) was 151 nM. For the same compound, the CC50 (HEP3B) was 106 nM and the “CLint Liver S9” value [4] was 50 µL/min/mg.

With `C[C@H](NP(=O)(OC[C@H]1OC[C@@H](n2ccc(N)nc2=O)O1)Oc1cccc2ccccc12)C(=O)OCc1ccccc1` (single isomer, unassigned; dia-1) [9 dia-1] the CC50 (Huh7) was 164 nM, the “CLint Intestinal S9” value [2] was 171 µL/min/mg and the CC50 (HepG2) was 23 nM. For the same compound, the “CLint Liver S9” value [4] was 133 µL/min/mg.
